“And” between values parts separate entries of the source, which are not always exact repeats. Equal entries are not always repeated. Marks after values point to notes of the source that are not given here. Blank lines part the entries; values can stand above or below the compound they belong to.
Columns and labels:
DLD-1 cells [1] = experiment: MTT metabolic activity assay; assay type: cell-based, human; settings: 48 h post-treatment, 5-Fluorouracil 16µM
Experimental: MTT assay was used to assess the proliferation rate of HCT-116 and DLD-1 cells. In this assay the ability of metabolically active cells to convert tetrazolium salt into a blue formazan product is measured. The absorption of the dissolved formazan was quantified at 540 nm by an ELISA reader (Bio-Rad iMark Microplate Reader).
Cells were plated at 2^∗104cells/ml in 96-well plates and incubated overnight. […] Metabolic activity of the cells was studied using the MTT assay that measures the ability of metabolically active cells to convert tetrazolium salt into a blue formazan product, the absorbance of which is recorded at 540 nm by an ELISA reader (Bio-Rad iMark Microplate Reader).

Caco-2 cells = experiment: MTT metabolic activity assay; assay type: cell-based, human; settings: Homo sapiens, 24 h post-treatment, 5-Fluorouracil 4µM, read-out: inhibition of proliferation (metabolic activity)
Experimental: (§1) Cells were plated at 2^∗104cells/ml in 96-well plates and incubated overnight. The following day, cells were treated in triplicate with Ceftazdime or 5-fluorouracil for 24-48 h, depending on the cell line used. Metabolic activity of the cells was studied using the MTT assay that measures the ability of metabolically active cells to convert tetrazolium salt into a blue formazan product, the absorbance of which is recorded at 540 nm by an ELISA reader (Bio-Rad iMark Microplate Reader).

RAW 264.7 cells = experiment: MTT metabolic activity assay on macrophages; assay type: cell-based, murine; settings: RAW 264.7
Experimental: as §1

HCT-116 cells [2] = experiment: Cell cycle distribution, propidium iodide staining; assay type: cell-based, human; settings: for percentage of cells in G0/G1 / percentage of cells in G2/M / percentage of cells in Pre G1 / percentage of cells in S: CFT 100 µg/mL, CFP 50 µg/mL, 5-FU 8 µM, alone or combined, mean ± SE
Experimental: Propidium iodide (PI) staining was used to evaluate the effect of the different treatments on the cell cycle. […] Fixed cells, which were washed with PBS and incubated at 37 °C for 1 h with 50 µl RNase (1 mg/ml) (Sigma Aldrich, Germany), were stained for 15 minutes with PI (Molecular Probes, Eugene, Oregon, USA).

DLD-1 cells [3] = experiment: Cell cycle distribution, propidium iodide staining; assay type: cell-based, human; settings: CFT 100 µg/mL, CFP 50 µg/mL, 5-FU 16 µM, alone or combined, mean ± SE
Experimental: Propidium iodide (PI) staining was used to evaluate the effect of the different treatments on the cell cycle. […] 48 h and 72 h post-treatment, collected cells were fixed with ice-cold ethanol (70%) and stored at - 20 °C for at least 2 h. Fixed cells, which were washed with PBS and incubated at 37 °C for 1 h with 50 µl RNase (1 mg/ml) (Sigma Aldrich, Germany), were stained for 15 minutes with PI (Molecular Probes, Eugene, Oregon, USA). Cell cycle was monitored using BD FACSDiva™ and the percentage of cells in the different phases of the cell cycle (pre-Gi, G0/G1, S, and G2/M) phases was determined using BD FACSDiva™ Software.
Propidium iodide (PI) staining was used to evaluate the effect of the different treatments (Ceftazidime (100 µg/ml) or 5-Fluorouracil (16 µM)) on the cell cycle profile of DLD-1 cells. Briefly, DLD-1 cells were plated at 5^∗104/ml and treated for 48 h and 72 h. Collected cells were fixed with ice-cold ethanol (70%) and stored at -20°C for at least 2 h. Fixed cells, which were washed with PBS and incubated at 37°C for 1 h with 50 µl RNase (1 mg/ml) (Sigma Aldrich, Germany), were stained for 15 minutes with PI (Molecular Probes, Eugene, Oregon, USA). Cell cycle was monitored using BD FACSDiva™ and the percentage of cells in the different phases of the cell cycle (pre-Gi, G0/G1, S, and G2/M) phases was determined using BD FACSDiva™ Software.

DLD-1 cells [4] = experiment: Caspase-3/7 activity assay; assay type: cell-based, human; settings: 48 h and 72 h, 5-FU 16 µM, CFT 100 µg/ml
Experimental: (§2) Caspase-3/7 activity was measured 48 h and 72 h post-treatment according to the manufacturer's protocol (Caspase-Glo-3/7 Assay, Promega Corp, Madison, WI, USA). Briefly, equal volume from treated cells and caspase-3/7 mixture were incubated at room temperature for 3 h and the luminescence was measured by a microplate reader.
as §2, with “DLD-1 cells were treated with CFT (100 µg/ml) or 5-Fluorouracil (16 µM). Caspase-3/7” for “Caspase-3/7”, “caspase 3/7” for “caspase-3/7”

HCT-116 cells [5] = experiment: MTT metabolic activity assay; assay type: cell-based, human; settings: for effect of combination with 5-FU on the inhibition of metabolic activity induced by 5-FU (in words): 5-FU 16 µM and 24 µM, MER, AMP, PIP 10, 50, 100 µg/mL, BenP, FLU 5, 25, 50 µg/mL
HCT-116 cells [6] = experiment: Caspase-3/7 activity assay; assay type: cell-based, human; settings: combined with 5-FU 8 µM, 48 and 72h, CFT 100 µg/ml, CFP 50 µg/ml
Experimental: as §2

DLD-1 cells [7] = experiment: Antibiotics' uptake by the cells, LC-MS/MS; settings: for Concentration of CFP, Lysate / Concentration of CFP, Supernatant: CFP 50 µg/ml alone or + 5-FU 16 µM
Experimental: (§3) This step was repeated three times and cell homogenate were vortexed at high-speed prior extraction. 40 µl from each supernatant and cell suspension were combined with 200 µl of internal standard working solution prepared in ice-cold methanol. Samples were then centrifuged and 100 µl of the supernatant were diluted with 400 µl water in glass vials prior analysis with LC-/MS/MS.

HCT-116 cells [8] = experiment: Antibiotics' uptake by the cells, LC-MS/MS; settings: for Concentration of CFP, Lysate / Concentration of CFP, Supernatant: HCT-116 cells, CFP 50 µg/ml alone or + 5-FU 8 µM
Experimental: as §3

[9] = Stability in media, LC-MS/MS; assay type: physicochemical; settings: antibiotic alone (CFP 50 µg/mL, CFT 100 µg/mL)
Experimental: B) CFT (100 µg/ml) ± 5-FU (8 µM and 16 µM). P value (a) (between antibiotic alone and 5-FU (8 µM)); P value (b) (between antibiotic alone and 5-FU (16 µM)), n = 3.

decrease of metabolic activity (RAW 264.7 cells; 24 h of treatment): 80% | metabolic activity of macrophages (in words) (RAW 264.7 cells; 48 h post-treatment): sustained up to 48 h
Structure (SMILES): O=c1[nH]cc(F)c(=O)[nH]1 [5-FU, 5-fluorouracil]
inhibitory effect vs. control untreated cells (metabolic activity) (DLD-1 cells [1]): 18% | inhibition at 4 µM (Caco-2 cells): 22% | increase in the percentage of cells in the pre-G1 phase vs. control (HCT-116 cells [2]; 48 h): 3 fold | percentage of cells in G0/G1 (HCT-116 cells [2]; 48 h): 48.4 ± 2.3^(a) % | percentage of cells in G2/M (HCT-116 cells [2]; 48 h): 22.3 ± 2.9% | percentage of cells in Pre G1 (HCT-116 cells [2]; 48 h): 16.9 ± 2.5^(a) % | percentage of cells in S (HCT-116 cells [2]; 48 h): 10.6 ± 1.0% | increase in the percentage of cells in the pre-G1 phase vs. control (HCT-116 cells [2]; 72 h): 8.2 fold | percentage of cells in G0/G1 (HCT-116 cells [2]; 72 h): 39.0 ± 9.5^(a) % | percentage of cells in G2/M (HCT-116 cells [2]; 72 h): 16.4 ± 2.4^(a) % | percentage of cells in Pre G1 (HCT-116 cells [2]; 72 h): 36.7 ± 11.7^(a) % | percentage of cells in S (HCT-116 cells [2]; 72 h): 6.6 ± 0.7% | percentage of cells in G0/G1 (DLD-1 cells [3]; 48 h): 49.3 ± 4.4% | percentage of cells in G2/M (DLD-1 cells [3]; 48 h): 10.3 ± 1.7^(a) % | percentage of cells in Pre G1 (DLD-1 cells [3]; 48 h): 6.3 ± 2.3% | percentage of cells in S (DLD-1 cells [3]; 48 h): 32.0 ± 6.1^(a) % | percentage of cells in G0/G1 (DLD-1 cells [3]; 72 h): 69.4 ± 5.0% | percentage of cells in G2/M (DLD-1 cells [3]; 72 h): 5.4 ± 2.7^(a) % | percentage of cells in Pre G1 (DLD-1 cells [3]; 72 h): 4.7 ± 0.3% | percentage of cells in S (DLD-1 cells [3]; 72 h): 20.1 ± 2.9^(a) % | caspase 3/7 activity / apoptosis induction (in words) (DLD-1 cells [4]): did not induce caspase 3/7 activity

Structure (SMILES): CC1(C)S[C@@H]2[C@H](NC(=O)[C@H](N)c3ccccc3)C(=O)N2[C@H]1C(=O)O [AMP, ampicillin]
effect of combination with 5-FU on the inhibition of metabolic activity induced by 5-FU (in words) (HCT-116 cells [5]): does not affect the inhibition

Structure (SMILES): CC1(C)S[C@@H]2[C@H](NC(=O)Cc3ccccc3)C(=O)N2[C@H]1C(=O)O [BenP, benzylpenicillin]
effect of combination with 5-FU on the inhibition of metabolic activity induced by 5-FU (in words) (HCT-116 cells [5]): does not affect the inhibition

Structure (SMILES): CO/N=C(\C(=O)N[C@@H]1C(=O)N2C(C(=O)[O-])=C(C[N+]3(C)CCCC3)CS[C@H]12)c1csc(N)n1 [CFP, cefepime]
effect on 5-FU's effect on metabolic activity (in words) (HCT-116 cells [5]; 48 h post-treatment, CFT 100 µg/mL, CFP 50 µg/mL combined with 5-FU): antagonized 5-FU's effect | percentage of cells in G0/G1 (HCT-116 cells [2]; 48 h): 51.7 ± 2.8% | percentage of cells in G2/M (HCT-116 cells [2]; 48 h): 24.6 ± 0.9% | percentage of cells in Pre G1 (HCT-116 cells [2]; 48 h): 4.9 ± 1.6% | percentage of cells in S (HCT-116 cells [2]; 48 h): 13.6 ± 1.6% | percentage of cells in G0/G1 (HCT-116 cells [2]; 72 h): 53.8 ± 3.6^(a) % | percentage of cells in G2/M (HCT-116 cells [2]; 72 h): 23.6 ± 2.2^(a) % | percentage of cells in Pre G1 (HCT-116 cells [2]; 72 h): 9.8% and 9.3 ± 2.9^(a) % | percentage of cells in S (HCT-116 cells [2]; 72 h): 7.4 ± 1.4% | percentage of cells in G0/G1 (DLD-1 cells [3]; 48 h): 48.8 ± 4.0% | percentage of cells in G2/M (DLD-1 cells [3]; 48 h): 18.4 ± 4.3% | percentage of cells in Pre G1 (DLD-1 cells [3]; 48 h): 2.6 ± 0.3% | percentage of cells in S (DLD-1 cells [3]; 48 h): 29.2 ± 8.1% | percentage of cells in G0/G1 (DLD-1 cells [3]; 72 h): 59.6 ± 3.6^(a) % | percentage of cells in G2/M (DLD-1 cells [3]; 72 h): 17.0 ± 3.5% | percentage of cells in Pre G1 (DLD-1 cells [3]; 72 h): 9.5 ± 4.1^(a) % | percentage of cells in S (DLD-1 cells [3]; 72 h): 13.1 ± 3.3^(a) % | effect on 5-FU-induced apoptosis (caspase 3/7, in words) (HCT-116 cells [6]): effect was seen only 72h post-treatment | Concentration of CFP, Lysate (DLD-1 cells [7]; 2 h): 0.012 ± 0.005 | Concentration of CFP, Supernatant (DLD-1 cells [7]; 2 h): 50.000 ± 1.697 | Concentration of CFP, Lysate (DLD-1 cells [7]; 4 h): 0.010 ± 0.0002 | Concentration of CFP, Supernatant (DLD-1 cells [7]; 4 h): 54.187 ± 0.849 | Concentration of CFP, Lysate (DLD-1 cells [7]; 6 h): 0.014 ± 0.0001 | Concentration of CFP, Supernatant (DLD-1 cells [7]; 6 h): 45.813 ± 3.818 | Concentration of CFP, Lysate (DLD-1 cells [7]; 8 h): 0.012 ± 0.001 | Concentration of CFP, Supernatant (DLD-1 cells [7]; 8 h): 47.947 ± 12.644 | average uptake by the cells (DLD-1 cells [7]; up to 8h): around 0.02% | Concentration of CFP, Lysate (HCT-116 cells [8]; 2 h): 0.018 ± 0.004 | Concentration of CFP, Supernatant (HCT-116 cells [8]; 2 h): 44.1 and 44.100 ± 3.395 | Concentration of CFP, Lysate (HCT-116 cells [8]; 4 h): 0.022 ± 0.005 | Concentration of CFP, Supernatant (HCT-116 cells [8]; 4 h): 34.500 ± 3.818 | Concentration of CFP, Lysate (HCT-116 cells [8]; 6 h): 0.050 ± 0.003 | Concentration of CFP, Supernatant (HCT-116 cells [8]; 6 h): 35.250 ± 1.485 | Concentration of CFP, Lysate (HCT-116 cells [8]; 8 h): 0.032 ± 0.002 | Concentration of CFP, Supernatant (HCT-116 cells [8]; 8 h): 35.9 and 35.850 ± 1.909 | average uptake in HCT-116 cells compared to DLD-1 cells (HCT-116 cells [8]; up to 8h): 2 folds | Stability test, level in media ([9]; 2h in media): 49.9 ± 9.5 | Stability test, level in media ([9]; 8h in media): 48.8 ± 5.3

Structure (SMILES): Cc1onc(-c2c(F)cccc2Cl)c1C(=O)N[C@@H]1C(=O)N2[C@@H]1SC(C)(C)[C@@H]2C(=O)O [FLU, flucloxacillin]
effect of combination with 5-FU on the inhibition of metabolic activity induced by 5-FU (in words) (HCT-116 cells [5]): does not affect the inhibition

Structure (SMILES): C[C@@H](O)[C@H]1C(=O)N2C(C(=O)O)=C(S[C@@H]3CN[C@H](C(=O)N(C)C)C3)[C@H](C)[C@H]12 [MER, meropenem]
effect of combination with 5-FU on the inhibition of metabolic activity induced by 5-FU (in words) (HCT-116 cells [5]): does not affect the inhibition

Structure (SMILES): CCN1CCN(C(=O)N[C@@H](C(=O)N[C@@H]2C(=O)N3[C@@H]2SC(C)(C)[C@@H]3C(=O)O)c2ccccc2)C(=O)C1=O [PIP, piperacillin]
effect of combination with 5-FU on the inhibition of metabolic activity induced by 5-FU (in words) (HCT-116 cells [5]): does not affect the inhibition
